Values quoted from earlier work in patent US7135436B2, “Solid algicide, preparation and usage in recirculating water” (J.F. Daley International, Ltd., priority 2003, dated 2006).

Settings: at 20° C.; 'believed to be'

For CCNc1nc(Cl)nc(NC(C)(C)C)n1 [terbuthylazine, 2-(tert-butylamino)-4-chloro-6-(ethylamino)-s-triazine], which “solubility of terbuthylazine in water” value is on record?
The value was “about 5 ppm”.
